According to the supplement of paper PMC10307832:

Compound: C=C(c1ccc(C(=O)O)cc1)c1cc2c(cc1C)C(C)(C)CCC2(C)C [Bexarotene] + CS(=O)(=O)N1CCN(Cc2cc3nc(-c4cccc5[nH]ncc45)nc(N4CCOCC4)c3s2)CC1 [Pictilisib] (partner 1 µM)
Experiment: relative viability (nuclei count vs DMSO), 5 days (fraction); higher = more cells survive
How it was run: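 A single step with final 0.05% Triton X-100, 1% formaldehyde and 1 ug/ml Hoechst fixed the cells and stained nuclei 5 days after treatment. Lung cancer cell lines in 1536-well plates had been treated by pin tool the day after seeding with one drug alone or a fixed anchor-drug dose plus five library-drug doses (not always all listed) in √10 steps, and nuclei were counted on 4× images. Relative viability is the ratio of nuclei in treated wells to nuclei in vehicle wells, taken as the median of duplicate plates.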

Cell Line | relative viability (first compound 0.08 µM) | relative viability (first compound 0.253 µM) | relative viability (first compound 0.8 µM) | relative viability (first compound 2.53 µM) | relative viability (first compound 8 µM)
201T | 0.745 | 0.631 | 0.612 | 0.639 | 0.596
A549 | 0.59 | 0.476 | 0.571 | 0.507 | 0.48
A-427 | 0.79 | 0.667 | 0.613 | 0.537 | 0.569
ABC-1 | 0.662 | 0.63 | 0.606 | 0.697 | 0.615
BEN | 0.674 | 0.576 | 0.495 | 0.452 | 0.571
CAL-12T | 0.333 |  | 0.396 |  | 0.361
COR-L23 | 0.735 | 0.759 | 0.5 | 0.67 | 0.52
COR-L 105 | 0.473 | 0.397 | 0.331 | 0.385 | 0.39
Calu-6 | 0.944 | 0.926 | 0.911 | 1.11 | 0.884
ChaGo-K-1 | 0.902 | 0.679 | 0.875 |  | 0.801
EBC-1 | 0.395 | 0.481 | 0.476 | 0.474 | 0.475
EKVX | 0.352 | 0.432 | 0.446 | 0.357 | 0.404
EMC-BAC-2 | 0.618 | 0.561 | 0.52 | 0.554 | 0.469
EPLC-272H | 0.373 | 0.308 | 0.33 | 0.298 | 0.352
H3255 | 0.574 | 0.504 | 0.607 | 0.493 | 0.528
HARA | 0.407 | 0.317 | 0.377 | 0.32 | 0.41
HCC-15 | 0.798 | 0.743 | 0.656 | 0.644 | 0.632
HCC-44 | 0.661 | 0.663 | 0.479 | 0.579 | 0.459
HCC-78 | 0.228 | 0.196 | 0.215 | 0.182 | 0.194
HCC-366 | 0.23 | 0.178 | 0.165 | 0.141 | 0.29
HCC-827 | 1.07 | 1.08 | 0.888 | 1.02 | 0.971
HOP-62 | 1.04 | 0.811 | 0.684 | 0.79 | 0.626
IA-LM | 0.335 | 0.314 | 0.476 | 0.313 | 0.319
LC-2-ad | 0.809 | 0.473 | 0.433 | 0.503 | 0.381
LCLC-97TM1 | 0.265 | 0.188 | 0.209 | 0.214 | 0.213
LCLC-103H | 0.71 | 0.642 | 0.529 | 0.653 | 0.631

Cell Line | relative viability (first compound 0.08 µM) | relative viability (first compound 0.253 µM) | relative viability (first compound 0.8 µM) | relative viability (first compound 2.53 µM) | relative viability (first compound 8 µM)
LK-2 | 0.933 | 0.711 | 0.824 | 0.659 | 0.785
LOU-NH91 | 0.546 | 0.537 | 0.508 | 0.492 | 0.505
LU99A | 0.377 | 0.407 | 0.379 | 0.297 | 0.323
LXF-289 | 0.798 | 0.68 | 0.711 | 0.581 | 0.604
NCI-H23 | 0.623 | 0.489 | 0.44 | 0.516 | 0.52
NCI-H322M | 0.573 | 0.408 | 0.544 | 0.514 | 0.502
NCI-H358 | 0.377 | 0.364 | 0.376 | 0.435 | 0.351
NCI-H441 | 0.628 | 0.511 | 0.524 | 0.482 | 0.616
NCI-H460 | 0.471 | 0.343 | 0.396 | 0.302 | 0.371
NCI-H520 | 0.324 | 0.244 | 0.293 | 0.286 | 0.235
NCI-H596 | 0.397 | 0.441 | 0.299 | 0.363 | 0.426
NCI-H647 | 0.378 | 0.356 | 0.429 |  | 0.358
NCI-H650 | 0.946 | 0.939 | 0.851 | 0.753 | 0.858
NCI-H661 | 0.438 | 0.362 | 0.397 | 0.362 | 0.35
NCI-H727 | 0.463 | 0.36 | 0.348 | 0.346 | 0.355
NCI-H838 | 0.557 | 0.5 | 0.51 | 0.638 | 0.578
NCI-H1299 | 0.954 | 0.893 | 0.661 | 0.733 | 0.596
NCI-H1355 | 0.604 | 0.622 | 0.358 | 0.561 | 0.486
NCI-H1395 | 0.678 | 0.603 | 0.571 | 0.807 | 0.762
NCI-H1437 | 0.572 | 0.447 | 0.56 | 0.601 | 0.542
NCI-H1563 | 0.736 | 0.647 | 0.685 | 0.696 | 0.661
NCI-H1650 | 0.669 | 0.544 | 0.527 | 0.537 | 0.527
NCI-H1651 | 0.837 | 0.52 | 0.723 | 0.674 | 0.593
NCI-H1666 | 0.256 | 0.337 | 0.359 | 0.58 | 0.459
NCI-H1703 | 0.247 | 0.239 | 0.209 | 0.247 | 0.262
NCI-H1734 | 0.559 | 0.462 | 0.4 | 0.442 | 0.43

Cell Line | relative viability (first compound 0.08 µM) | relative viability (first compound 0.253 µM) | relative viability (first compound 0.8 µM) | relative viability (first compound 2.53 µM) | relative viability (first compound 8 µM)
NCI-H1755 | 0.457 | 0.454 | 0.356 | 0.37 | 0.337
NCI-H1792 | 0.244 | 0.204 | 0.213 | 0.252 | 0.205
NCI-H1793 | 0.52 | 0.547 | 0.508 | 0.316 | 0.431
NCI-H1915 | 1.19 | 0.989 | 0.882 | 0.996 | 0.917
NCI-H1944 | 0.388 | 0.391 | 0.336 | 0.374 | 0.37
NCI-H1975 | 0.361 | 0.347 | 0.319 | 0.342 | 0.386
NCI-H1993 | 0.803 | 0.846 | 0.899 | 0.866 | 0.836
NCI-H2009 | 0.96 | 0.959 | 0.723 | 0.818 | 0.8
NCI-H2023 | 0.326 | 0.245 | 0.241 | 0.252 | 0.222
NCI-H2085 | 0.449 | 0.461 | 0.431 | 0.386 | 0.476
NCI-H2087 | 1.03 | 0.941 | 0.91 | 0.786 | 0.818
NCI-H2126 | 0.558 | 0.512 | 0.462 | 0.514 | 0.519
NCI-H2170 | 0.352 | 0.307 | 0.302 | 0.271 | 0.268
NCI-H2228 | 0.476 | 0.572 | 0.358 | 0.454 | 0.336
NCI-H2347 | 0.597 | 0.62 | 0.461 | 0.743 | 0.605
NCI-H2405 | 0.58 | 0.455 | 0.326 | 0.538 | 0.523
NCI-H3122 | 0.82 | 0.821 | 0.647 | 0.855 | 0.802
PC-3 [JPC-3] | 0.868 | 0.749 | 0.519 | 0.656 | 0.666
PC-14 | 0.663 | 0.724 | 0.7 | 0.704 | 0.565
RERF-LC-KJ | 0.492 | 0.592 | 0.503 | 0.387 | 0.57
SK-LU-1 | 0.717 | 0.663 |  | 0.567 | 0.63
SK-MES-1 | 0.397 | 0.408 | 0.466 | 0.329 | 0.399
SW 1573 | 0.554 | 0.459 | 0.447 | 0.42 | 0.436
UMC-11 | 0.973 | 0.814 | 0.756 | 0.805 | 0.802
